“Also recorded” adds a separate entry of the source.
Assays:
[1] = system: OVCAR-3 (human ovarian carcinoma); test: Ovarian carcinoma model OVCAR-3 in SCID mice; type: in vivo; conditions: QC-56 60 mg/kg/ip; CDDP 3 mg/kg
Text: • Species and strain: […] OVCAR-3 (human ovarian carcinoma). […] Control groups received the vehicle alone.

[2] = system: B16-BL6 cells (mouse melanoma); test: B16-BL6 melanoma lung metastasis model; type: in vivo; conditions: QC-56 60 mg/kg i.p.; vehicle group 101 nodules
Experimental: • Species and strain: […] B16-BL6 cells (mouse melanoma). B16-BL6 metastatic variant was derived from B16-F10. This cell variant was obtained from Dr. Linda D. Williams, Dept. of Cancer Biology, MD Anderson Cancer Center, Texas, USA. […] Cells were maintained at 37° C. in a humidified atmosphere (5% CO2, 95% air). […] Control groups received the vehicle alone.

[3] = system: hHO-1 transfected primary rat astroglial cultures; test: Protein carbonyl ELISA in hHO-1-transfected primary rat astroglia (whole-cell and mitochondrial compartments); type: cell-based
Experimental: Cells were grown in Ham's F12 and high glucose DMEM (50:50 v/v) supplemented with 10 mM HEPES, 5% heat-inactivated horse serum, 5% heat-inactivated fetal bovine serum, and penicillin-streptomycin (50 U/mL and 50 μg/mL, respectively).
(§1) Upon reaching >90% confluence, 1×10^6 cells were transiently transfected with 4.0 μg of plasmid DNA-Lipofectamine 2000 complex using Lipofectamine 2000 method according to manufacturer instructions (Invitrogen). […] 12 μg of plasmid DNA and 16 μl of Lipofectamine 2000 reagent were diluted in 1.5 mL opti-MEM I reduced serum medium and incubated for 5 minutes at room temperature with gentle mixing. The two solutions were combined, incubated at room temperature for 20 minutes to promote formation of DNA-lipid complexes and administered to the cells. 2 mL opti-MEM I reduced serum medium was added to the flasks to ensure coverage of the monolayer by the transfection mixture. Following incubation for 6 hours at 37° C., the transfection mixture was replaced with 10 mL of complete media without antibiotics.
The cells were sonicated (Sonics & Materials, Danbury, Conn.) at a power level of 50 for 3×20 s in a cooled water bath. […] Whole-cell and mitochondrial preparations were assayed for protein carbonyls as described below.
Protein carbonyls were reacted with 2,4-dinitrophenylhydrazine (DNP) and the hydrazone adducts were detected with anti-DNP antisera. Quantification was achieved by comparison with oxidized BSA standards. Oxidized (carbonylated) BSA was prepared by reacting natural BSA (at 50 mg/mL in PBS) with hypochlorous acid (5 mM) for 1 h at 37° C., followed by overnight dialysis against PBS at 4° C. […] The pellet was resuspended in 2 mL of same buffer, sonicated on ice 2×15 s at 20 W and centrifuged for 20 min at 4° C. at 1,303×g. Protein concentration of supernatant was measured with the RC DC protein assay based on the Lowry protocol (Bio-Rad Laboratories, Hercules, Calif.). All samples were adjusted to 4.0 mg protein/mL. […] Five microliters aliquots of each reaction mixture were mixed with 1 mL PBS and 200 μL replicates were added per well to 96-well immunoplates and incubated overnight at 4° C. After washing with PBS, nonspecific binding sites were blocked with 0.1% Tween 20 in PBS. […] A 6-point standard curve of reduced and oxidized BSA was generated for each plate analyzed. Specific absorbance for each sample was calculated by subtracting basal absorbance of the DNP reagent from the total absorbance.

[4] = biological target: T1, human HO-1 (hHO-1) in transfected astroglia (Homo sapiens, UniProt P09601); test: HO enzyme activity (bilirubin formation) in hHO-1-transfected astrocytes; type: cell-based
T1 construct: containing the entire protein-coding region (866 bp) of the human HO-1 gene; expressed in transfected cells; host or cells: primary rat astrocytes, transient transfection with pcDNA3.1/Zeo.CMV.Flag.hHO-1 (Lipofectamine 2000)
T1 sequence (P09601 1-288): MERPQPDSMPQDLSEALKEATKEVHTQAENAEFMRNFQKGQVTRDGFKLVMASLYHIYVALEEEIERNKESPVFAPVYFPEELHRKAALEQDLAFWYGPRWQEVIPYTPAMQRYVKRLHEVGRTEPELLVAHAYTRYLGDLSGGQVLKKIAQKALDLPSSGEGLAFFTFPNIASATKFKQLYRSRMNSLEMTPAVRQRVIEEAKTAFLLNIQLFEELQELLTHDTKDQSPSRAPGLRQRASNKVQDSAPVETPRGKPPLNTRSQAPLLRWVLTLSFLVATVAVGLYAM
Experimental: as §1
A young adult male rat was gas-anesthetized, laid on ice and systemically perfused with ice-cold 0.9% NaCl to get rid of all blood from liver. The liver was then excised on ice and transferred to a cold room (4° C.) and cut into small pieces in cold 0.9% NaCl (3 mL per gram of tissue) with surgical scissors in and placed in a 50 mL tube. The tissue chunks were homogenized with an electric tissue homogenizer and centrifuged at 150×g for […] at 4° C. Similarly, all of the following steps, including centrifugations, were performed at 4° C. The supernatant was centrifuged at 18,000×g for 10 min and further at 30,000×g for 30 min. A saturated solution of ammonium sulfate was added to the 30,000×g supernatant to attain 40% saturation and placed on ice for 10 min. The mixture was centrifuged at 10,000×g for 10 min and supernatant was recovered and transferred to a fresh tube. Sixty percent of saturation was achieved by adding saturation solution of ammonium sulfate to the supernatant. The mixed solution was centrifuged again at 10,000×g for 10 min and […]. […] The dialysate was centrifuged at 10,000 g for 10 min and pellet was discarded. The protein concentration of the supernatant was measured with Bradford reagent (BioRad laboratories, Hercules, Calif.) and adjusted to 10 mg/mL with 0.01 M KPO4, pH7.4. The supernatant was aliquoted and stored at −20° C. ready for use.
Cytosol extracts were prepared for HO activity measurement by the method of Ryter (Ryter, Kvam, Tyrrell 2000). Astroglial monolayers were washed with ice-cold PBS and scraped in ice-cold PBS-EDTA (1 mM, pH 8.0) containing 50 μg/mL protease inhibitor (AEBSF), centrifuged at 150×g at 4° C. and resuspended in 20 mM Tris-HCl (pH 7.4) and 0.25 M sucrose containing protease inhibitors. Cell suspensions were sonicated on ice 2×15 s at 20 W and centrifuged for 20 min at 4° C. at 15,000×g. Protein concentration of supernatant was measured with Bradford method. […] Reaction mixtures were incubated at 37° C. in the dark for 60 min with hard vortex every 10 min. […] HO activity was calculated as nanomoles bilirubin per milligram protein per min, assuming an extinction coefficient of 40/mM/cm in chloroform (see FIG. 8).
Cells were rinsed twice with cold PBS (pH 7.4) and scraped in iced lysis buffer consisting of 1% Nonidet P-40, 50 mM Tris.HCl (pH 7.4), 30 mM NaCl, 25 mM β-glycerophosphate, 10 mM EDTA, 10 mM EGTA, 1 mM MgCl2, and protease inhibitors (10 mM sodium fluoride, 50 μg/mL AEBBSF, 5 μg/mL leupeptin, 5 μg/mL pepstatin, 5 μg/mL aprotinin). […] Protein contents were determined using the Bradford method. […]

[5] = system: SKMEL 28-V+ cells (human melanoma); test: Melanoma model SKMEL-V+ in SCID mice (combination study); type: in vivo; conditions: QC-56 60 mg/kg/ip; Dacarbazine 55 mg/kg
Experimental: SKMEL 28-V+ cells (human melanoma). These cells were originally from the ATCC and then engineered to overexpress VEGF. […] The cells were tested to be free of mycoplasma.
(§2) Control groups received the vehicle alone.

SKMEL-V+ cells = test: Melanoma efficacy study of QC-199, SKMEL-V+ cells s.c. in Scid mice; type: in vivo, human; conditions: 10 mg/kg i.v. injection, 2 cycles, d1, 3, 5 per cycle
Experimental: BD PharMingen, San Diego, Calif.). Cryostat sections were used for CD31 staining. […] Sections were rehydrated in PBS and then blocked with 5% normal goat serum for 1 h. The sections were then incubated overnight at 4° C. with CD31 antibody diluted 1:25 in 3% BSA-PBS. […] Sections were counterstained with Harris' hematoxylin and mounted. Slides were analyzed by conventional light microscopy and photographed using color slides (Eastman Kodak, Rochester, N.Y.). Balb/c Scid mice, 6 week-old, were obtained from Charles River Laboratories, St. Zotique, PQ, Canada. The mice weighed 18-22 g. The experiments were approved by the Animal Care Committee, McGill University, Montreal. The animals were housed in individual cages (4 per cage) and were fed standard rodent chow and water ad libitum. […] When the tumors become palpable (size of a rice), mice weights were measured with a digital balance accurate to 0.05 g. […] For the infusion, mice were anesthetized using isoflurane-based system ([…] COMPACT NRB, 3975-0800-000). For the infusion, a mini pump (NE-1800, New Era Pump Systems, Inc.) was used to infuse the compound via the tail vein during a 2 h period. […] At experiment termination, mice were anesthetized with isoflurane and sacrificed by cervical dislocation. Tumors were dissected and tumor weights were measured using a digital balance.

[6] = system: HCT-116 colorectal carcinoma; test: Colorectal carcinoma model HCT-116 in SCID mice; type: in vivo, human
Text: as §2

With `N.N.[Cl][Pt][Cl]` [cisplatin, reference compound] the “tumor size on the day of sacrifice” value [1] was 0.63±0.06 cm^3 and the “macroscopic nodules in the lungs (average)” value [2] was 60.
For `Cl.FC[C@@H]1CO[C@@](CCc2ccc(Cl)cc2)(Cn2ccnc2)O1` [QC-47, (2R,4S)-2-[2-(4-Chlorophenyl)ethyl]-2-[(1H-imidazol-1-yl)methyl]-4-(fluoromethyl)-1,3-dioxolane hydrochloride], the “oxidative protein damage (protein carbonyls) accruing from hHO-1 transfection” value ([3]; 6.5 μM) was “significantly attenuated”, the “dose dependence of attenuation of oxidative protein damage” value ([3]; transiently transfected rat astroglia, hydrochloride) was “significant dose dependant attenuations; also recorded: in a dose dependent manner significantly decreased” and the “HO activity in HO-1-transfected astroglia” value ([4]; 6.5 μM, 18 h, hHO-1-transfected cells, hydrochloride) was “suppressed to levels akin to those of non-transfected and sham-transfected controls; also recorded: significantly attenuated; also recorded: significantly decreased”. The “expression level of flag-tagged HO-1 protein” value ([4]; 6.5 μM, transiently transfected cells) was “without affecting the expression level of flag-tagged HO-1 protein” and the IC50 ([4]; concentration of QC-47 used on HO-1-transfected astroglia, stated as IC50) was 6.5 µM.
In the case of `CN(C)/N=N/c1[nH]cnc1C(N)=O` [Dacarbazine, reference compound], the “inhibition of tumor growth compared to vehicle alone” value [5] is reported as “approximately 24%”, the “tumor size on the day of sacrifice” value [5] is reported as 1.30±0.23 cm^3 and the “reduction of tumor volume vs vehicle” value (SKMEL-V+ cells) is reported as 21%.
With `O=c1[nH]cc(F)c(=O)[nH]1` [5-FU, reference compound] the mouse mortality ([6]; 60 mg/kg, HCT-116 model (FIG. 25)) was “induced mortality” and the “reduction of tumor volume at the time of sacrifice compared to control” value ([6]; QC-56 60 mg/kg/ip, 5-FU 60 mg/kg/ip reduced to 40 mg/kg) was “similar”.
